Measurements taken from paper PMC9728921, “Characterization of a KDM5 small molecule inhibitor with antiviral activity against hepatitis B virus” (PLOS ONE, 2022).
Entries after “also recorded” stand apart in the source; their conditions may differ.

Tests used:
[1] = target: T1, PRMT4 (Homo sapiens, UniProt Q86X55); test: Histone methyltransferase enzymatic assay, PRMT4; format: biochemical; settings: enzyme conc. 100 nM
T1 construct: 2-608
Description: Histone methyltransferase assays were performed in 96-well half-area optiplates (PerkinElmer) at room temperature. All concentrations are final unless noted otherwise. Compounds were serially diluted in DMSO and the final DMSO concentration was 1%. A 24 μL reaction mixture contained compound, enzyme, 200 nM of nucleosome or histone substrate, 400 nM ^3H-SAM (83.1 Ci/mmol), 50 mM Tris-HCl (pH 8.0), 50 mM NaCl, 5 mM MgCl2, 1 mM DTT, and 0.01% Tween-20. The plate was sealed, mixed on a Titramax plate shaker at 1200 rpm for 30 sec, and incubated at room temperature for 60 min. The reaction was quenched by addition of 24 μL mixture containing 5 mg/mL PVT-PEI beads and 300 μM unlabeled SAM in water. The plate was sealed, mixed as previously noted, incubated overnight, and read on a TopCount plate reader (PerkinElmer).
(§1) Data was analyzed using GraphPad Prism 6.0 (La Jolla, CA). […] IC50 values were calculated as an average of at least two independent experiments.

[2] = target: KDM6A (Homo sapiens, UniProt O15550); test: KDM6A enzymatic assay (AlphaLISA); format: biochemical
Description: The following assay protocol was used for all histone demethylases tested except KDM1A, KDM5A, B, and D, which are described below. Compounds were serially diluted into a 384-well Alpha plate as a DMSO solution and mixed with 5 μL reaction buffer (buffer A) containing 50 mM HEPES (pH 7.0), 0.1% BSA, and 0.003% Tween-20. The enzyme of interest was pre-incubated with 15 μM of Fe^2+ for 10 min (except 30 min for KDM2B) in reaction buffer A. 5 μL of the enzyme mixture was added to each of the compound-containing wells and incubated for 10 min. The reaction was started by addition of a 5 μL mixture containing 300 nM peptide substrate, 75 μM L-ascorbic acid, and 30 μM α-ketoglutarate in buffer A. This final 15 μL of reaction mixture was incubated for 20 min for KDM5B and 1 hour for the other KDM enzymes. The reaction was quenched with 10 μL of diluted AlphaLISA Acceptor beads (1:400) in Epigenetics Buffer and incubated for 60 min. The Donor beads were diluted 1:400 into Epigenetics Buffer in the dark and 10 μL of this was added to each well and incubated for another 60 min in the dark. The assay plates were read on an Enspire plate reader (PerkinElmer) using a standard AlphaLISA program.
as §1

[3] = system: HBV (genotype C, GTC); test: HBV mouse efficacy model (uPA-SCID mice with humanized livers), serum HBV DNA and HBsAg; format: in vivo; settings: 30 or 100 mg/kg p.o. qd x 7d, one week on one week off, 56 days
Description: The in vivo and in vitro hepatocyte infection model portions of the study were performed by PhoenixBio (Higashi-Hiroshima, Japan). […] Mice were infected with HBV GTC virus (PhoenixBio; PBB004, Lot #160205) and had serum HBV titer levels greater than 1.0E+08 copies/mL seven days prior to study initiation. HBV-infected mice were treated once daily (p.o.) for seven days (Day 0–6) with deionized water for acclimation. […] Fifty μL of blood was collected from animals under isoflurane anesthesia via the retro-orbital plexus/sinus and centrifuged for serum collection for HBsAg and HBV DNA measurements described below. At termination of study (Day 56), 100–200 mg of tissue was harvested from the left lateral liver lobe of all animals.
For in vivo mouse studies, serum HBsAg concentrations were determined by SRL, Inc. (Tokyo, Japan) based on the Chemiluminescent Enzyme Immuno Assay (CLEIA) developed by Fujirebio (Lumipulse® Presto II).
HBV DNA was extracted from 5 μL of serum using the SMITEST EX-R&D Nucleic Acid Extraction Kit (Medical & Biological Laboratories, CO. LTD, Nagoya, Japan) and dissolved in 20 μL nuclease-free water (Thermo Fisher Scientific Inc., Waltham, MA). […] The average serum HBV DNA level was calculated from the values of the two separate wells. […]

[4] = system: host and viral transcriptomes in PHH; test: RNA-seq of HBV-infected PHH; format: cell-based, human; settings: 0.03, 0.3, or 10 μM; days 1, 3, 10, 13
Description: (D) Hallmark Gene Set. […] For comparison, downregulation of HBV mRNA for same dose and time regiment is shown at the top.
Library building and sequencing for RNA-seq of PHH and rat liver was performed on all samples at EA Genomics/Q2 Solutions (Morrisville, NC). Approximately 100 mg of rat liver tissue from the left later lobe was flash frozen immediately after collection. PHH were lysed into RLT buffer (Qiagen; 79216) and immediately frozen. Liver/PHH samples were homogenized in QIAzol Lysis Reagent (79306) and after addition of chloroform the samples were separated into aqueous and organic phases by centrifugation. Ethanol was added to the upper aqueous phase and the sample was applied to an RNeasy Mini spin column (74104) for purification and RNA eluted with water. Libraries were prepared using the Illumina TruSeq stranded mRNA sample preparation kit according to the manufacturer’s protocol (Illumina, Inc., Hayward, CA; RS-122-2103). Approximately 30 million 2 x 50 bp paired-end reads were collected per sample using the Illumina HiSeq2000 sequencing platform. Sequencing reads were aligned to the human, rat, or HBV genomes by STAR [49]. The Bioconductor packages edgeR [50] and limma were used to normalize sequence count data (counts per million; cpm) and conduct differential gene expression analysis. The false discovery rate (FDR) was calculated using the Benjamini-Hochberg method.

Sequence of KDM6A (O15550 whole entry): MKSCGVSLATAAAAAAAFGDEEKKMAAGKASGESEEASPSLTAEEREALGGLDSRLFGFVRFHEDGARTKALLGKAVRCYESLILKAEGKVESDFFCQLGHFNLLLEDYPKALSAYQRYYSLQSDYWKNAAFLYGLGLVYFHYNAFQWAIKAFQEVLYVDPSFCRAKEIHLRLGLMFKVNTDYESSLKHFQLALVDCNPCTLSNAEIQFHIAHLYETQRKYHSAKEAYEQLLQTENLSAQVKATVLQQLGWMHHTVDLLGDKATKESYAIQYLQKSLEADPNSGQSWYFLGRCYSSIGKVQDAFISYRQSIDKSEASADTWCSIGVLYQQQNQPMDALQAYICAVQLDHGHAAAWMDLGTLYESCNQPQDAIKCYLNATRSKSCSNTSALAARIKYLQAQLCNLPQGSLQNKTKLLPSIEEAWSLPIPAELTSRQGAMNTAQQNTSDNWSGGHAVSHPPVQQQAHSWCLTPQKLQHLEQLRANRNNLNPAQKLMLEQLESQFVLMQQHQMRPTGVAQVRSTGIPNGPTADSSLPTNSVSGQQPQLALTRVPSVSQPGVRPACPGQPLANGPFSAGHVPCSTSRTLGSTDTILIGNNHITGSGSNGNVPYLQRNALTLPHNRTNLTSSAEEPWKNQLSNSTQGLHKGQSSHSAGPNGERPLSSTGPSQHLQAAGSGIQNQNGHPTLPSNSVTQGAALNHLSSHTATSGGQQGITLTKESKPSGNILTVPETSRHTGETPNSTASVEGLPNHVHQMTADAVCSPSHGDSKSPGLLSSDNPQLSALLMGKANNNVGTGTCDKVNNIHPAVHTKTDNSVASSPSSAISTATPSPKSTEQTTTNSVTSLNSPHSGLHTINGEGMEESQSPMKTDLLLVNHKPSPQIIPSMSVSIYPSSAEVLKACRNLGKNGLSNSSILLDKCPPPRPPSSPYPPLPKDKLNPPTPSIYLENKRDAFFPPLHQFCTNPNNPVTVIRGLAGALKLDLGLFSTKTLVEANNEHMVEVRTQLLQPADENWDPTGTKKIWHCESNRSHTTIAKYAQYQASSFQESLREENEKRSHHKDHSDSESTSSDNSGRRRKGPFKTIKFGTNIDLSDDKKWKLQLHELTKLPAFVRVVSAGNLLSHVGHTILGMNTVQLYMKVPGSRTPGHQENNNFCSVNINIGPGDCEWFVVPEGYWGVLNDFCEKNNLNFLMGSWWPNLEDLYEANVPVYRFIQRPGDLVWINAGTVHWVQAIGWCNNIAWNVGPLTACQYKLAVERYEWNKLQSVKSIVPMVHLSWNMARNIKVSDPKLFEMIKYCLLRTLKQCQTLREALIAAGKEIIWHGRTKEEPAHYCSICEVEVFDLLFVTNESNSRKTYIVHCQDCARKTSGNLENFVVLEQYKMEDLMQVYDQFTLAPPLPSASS
T1 sequence (Q86X55 2-608): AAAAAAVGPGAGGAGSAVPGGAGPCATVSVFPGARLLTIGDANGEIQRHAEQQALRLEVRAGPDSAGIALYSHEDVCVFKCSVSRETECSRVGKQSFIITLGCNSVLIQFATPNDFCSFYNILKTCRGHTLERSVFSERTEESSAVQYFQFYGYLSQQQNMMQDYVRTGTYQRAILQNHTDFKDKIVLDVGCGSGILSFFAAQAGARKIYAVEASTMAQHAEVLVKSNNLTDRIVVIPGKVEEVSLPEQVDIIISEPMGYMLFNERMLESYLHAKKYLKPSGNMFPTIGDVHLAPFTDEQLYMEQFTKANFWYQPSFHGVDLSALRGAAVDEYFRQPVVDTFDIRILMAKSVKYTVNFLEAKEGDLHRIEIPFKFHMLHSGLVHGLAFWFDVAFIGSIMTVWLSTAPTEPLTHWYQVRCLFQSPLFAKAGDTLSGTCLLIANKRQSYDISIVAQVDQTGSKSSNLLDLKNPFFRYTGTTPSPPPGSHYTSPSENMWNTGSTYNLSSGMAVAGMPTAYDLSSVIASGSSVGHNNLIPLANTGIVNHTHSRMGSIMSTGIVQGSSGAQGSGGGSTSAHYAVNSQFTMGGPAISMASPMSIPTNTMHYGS

IC50 [1]	Fold Selectivity Compared to KDM5A ([2]; IC50 of KDM6A over KDM5A)	IC50 ([2]; enzyme concentration 2 nM)	Compound	antiviral efficacy: serum HBsAg and HBV DNA [3]	levels of HBV mRNA as measured by RNA-seq [4]
> 100 µM	> 17,200 fold	6.2 µM	CCN(CCN(C)C)C(=O)CNCc1cc(C(=O)O)ccn1 [GS-080]		
			CCOC(=O)c1ccnc(CNCC(=O)N(CC)CCN(C)C)c1 [GS-5801]	did not result in changes in the amounts of HBsAg or HBV DNA; also recorded: did not have antiviral activity at either dose tested	decreased after GS-5801 treatment in a dose and time dependent manner
